# According to ChEMBL document CHEMBL2401728, “An unexpected Dimroth rearrangement leading to annelated thieno[3,2-d][1,2,3]triazolo[1,5-a]pyrimidines with potent antitumor activity” (Eur J Med Chem, 2013):
# Key:
# Assay type in all cases: functional
# SK-OV-3 [1] = assay: Cytotoxicity against human SKOV3 cells assessed as cellular growth at 0.01 uM after 48 hrs by SRB assay relative to control
# OVCAR-8 = assay: Cytotoxicity against human OVCAR8 cells assessed as cellular growth at 0.01 uM after 48 hrs by SRB assay relative to control
# U-251 = assay: Cytotoxicity against human U251 cells assessed as cellular growth at 0.01 uM after 48 hrs by SRB assay relative to control
# SF-295 = assay: Cytotoxicity against human SF295 cells assessed as cellular growth at 0.01 uM after 48 hrs by SRB assay relative to control
# HCT-116 [2] = assay: Cytotoxicity against human HCT116 cells assessed as cellular growth at 0.01 uM after 48 hrs by SRB assay relative to control
# NCI-H23 [3] = assay: Cytotoxicity against human NCI-H23 cells assessed as cellular growth at 0.01 uM after 48 hrs by SRB assay relative to control
# [4] = Cytotoxicity against human NCI-ADR-RES cells assessed as cellular growth at 100 uM after 48 hrs by SRB assay relative to control
# IGROV-1 = assay: Cytotoxicity against human IGROV1 cells assessed as cellular growth at 100 uM after 48 hrs by SRB assay relative to control
# SNB-19 = assay: Cytotoxicity against human SNB19 cells assessed as cellular growth at 100 uM after 48 hrs by SRB assay relative to control
# NCI-H522 = assay: Cytotoxicity against human NCI-H522 cells assessed as cellular growth at 100 uM after 48 hrs by SRB assay relative to control
# COLO 205 [5] = assay: Cytotoxicity against human COLO205 cells assessed as cellular growth at 100 uM after 48 hrs by SRB assay relative to control
# NCI-H23 [6] = assay: Cytotoxicity against human NCI-H23 cells assessed as cellular growth at 100 uM after 48 hrs by SRB assay relative to control
# MDA-MB-468 [7] = assay: Cytotoxicity against human MDA-MB-468 cells assessed as cellular growth at 1 uM after 48 hrs by SRB assay relative to control
# Hs-578T [8] = assay: Cytotoxicity against human Hs578T cells assessed as cellular growth at 10 uM after 48 hrs by SRB assay relative to control
# SK-MEL-28 [9] = assay: Cytotoxicity against human SK-MEL-28 cells assessed as cellular growth at 10 uM after 48 hrs by SRB assay relative to control
# SW-620 = assay: Cytotoxicity against human SW620 cells assessed as cellular growth at 10 uM after 48 hrs by SRB assay relative to control
# HCT-116 [10] = assay: Cytotoxicity against human HCT116 cells assessed as cellular growth at 10 uM after 48 hrs by SRB assay relative to control
# MDA-MB-468 [11] = assay: Cytotoxicity against human MDA-MB-468 cells assessed as cellular growth at 100 uM after 48 hrs by SRB assay relative to control
# DU-145 = assay: Cytotoxicity against human DU145 cells assessed as cellular growth at 1 uM after 48 hrs by SRB assay relative to control
# ACHN = assay: Cytotoxicity against human ACHN cells assessed as cellular growth at 1 uM after 48 hrs by SRB assay relative to control
# SK-OV-3 [12] = assay: Cytotoxicity against human SKOV3 cells assessed as cellular growth at 1 uM after 48 hrs by SRB assay relative to control
# OVCAR-4 [13] = assay: Cytotoxicity against human OVCAR4 cells assessed as cellular growth at 1 uM after 48 hrs by SRB assay relative to control
# OVCAR-3 [14] = assay: Cytotoxicity against human OVCAR3 cells assessed as cellular growth at 1 uM after 48 hrs by SRB assay relative to control
# SK-MEL-28 [15] = assay: Cytotoxicity against human SK-MEL-28 cells assessed as cellular growth at 1 uM after 48 hrs by SRB assay relative to control
# KM12 = assay: Cytotoxicity against human KM12 cells assessed as cellular growth at 1 uM after 48 hrs by SRB assay relative to control
# COLO 205 [16] = assay: Cytotoxicity against human COLO205 cells assessed as cellular growth at 1 uM after 48 hrs by SRB assay relative to control
# HOP-92 = assay: Cytotoxicity against human HOP92 cells assessed as cellular growth at 1 uM after 48 hrs by SRB assay relative to control
# BT-549 = assay: Cytotoxicity against human BT549 cells assessed as cellular growth at 0.1 uM after 48 hrs by SRB assay relative to control
# MCF7 = assay: Cytotoxicity against human MCF7 cells after 48 hrs by SRB assay; conditions: MCF7, 48 h
# SF-268 = assay: Cytotoxicity against human SF268 cells after 48 hrs by SRB assay; conditions: SF-268, 48 h
# COLO 205 [17] = assay: Cytotoxicity against human COLO205 cells after 48 hrs by SRB assay; conditions: COLO 205, 48 h
# NCI-H23 [18] = assay: Cytotoxicity against human NCI-H23 cells after 48 hrs by SRB assay; conditions: NCI-H23, 48 h
# A549 = assay: Cytotoxicity against human A549 cells after 48 hrs by SRB assay; conditions: A549, 48 h
# RXF 393 = assay: Cytotoxicity against human RXF393 cells assessed as cellular growth at 0.1 uM after 48 hrs by SRB assay relative to control
# OVCAR-5 = assay: Cytotoxicity against human OVCAR5 cells assessed as cellular growth at 0.1 uM after 48 hrs by SRB assay relative to control
# OVCAR-4 [19] = assay: Cytotoxicity against human OVCAR4 cells assessed as cellular growth at 0.1 uM after 48 hrs by SRB assay relative to control
# OVCAR-3 [20] = assay: Cytotoxicity against human OVCAR3 cells assessed as cellular growth at 0.1 uM after 48 hrs by SRB assay relative to control
# Hs-578T [21] = assay: Cytotoxicity against human Hs578T cells assessed as cellular growth at 0.01 uM after 48 hrs by SRB assay relative to control
# SK-OV-3 [22] = assay: Cytotoxicity against human SKOV3 cells assessed as cellular growth at 10 uM after 48 hrs by SRB assay relative to control
# [23] = read-out: LC50 (the source's name)
# [24] = read-out: pLC50 (the source's name) (converted)
structure (smiles),measurement,setting,value
CN1CCN(CCCn2c3c(sc4ncccc43)c(=O)n3nnc(-c4ccccc4)c23)CC1,Activity,SK-OV-3 [1],101%
same,Activity,OVCAR-8,97%
same,Activity,U-251,97%
same,Activity,SF-295,106%
same,Activity,HCT-116 [2],97%
same,Activity,NCI-H23 [3],100%
same,Activity,[4],-62%
same,Activity,IGROV-1,-75%
same,Activity,SNB-19,-42%
same,Activity,NCI-H522,-35%
same,Activity,COLO 205 [5],-86%
same,Activity,NCI-H23 [6],-59%
same,Activity,MDA-MB-468 [7],101%
same,Activity,Hs-578T [8],69%
same,Activity,SK-MEL-28 [9],87%
same,Activity,SW-620,-63%
same,Activity,HCT-116 [10],-92.56%
same,Activity,MDA-MB-468 [11],-91%
same,Activity,DU-145,95%
same,Activity,ACHN,84%
same,Activity,SK-OV-3 [12],106%
same,Activity,OVCAR-4 [13],93%
same,Activity,OVCAR-3 [14],96%
same,Activity,SK-MEL-28 [15],99%
same,Activity,KM12,91%
same,Activity,COLO 205 [16],86%
same,Activity,HOP-92,82%
same,Activity,BT-549,98%
same,GI50,MCF7; read-out: GI50,1.53 µM
same,LC50,MCF7; read-out: LC50,5.82 µM
same,TGI,MCF7; read-out: TGI,2.99 µM
same,GI50,MCF7; read-out: pGI50 (converted),1.55 µM
same,LC50,MCF7; read-out: pLC50 (converted),5.75 µM
same,TGI,MCF7; read-out: pTGI (converted),3.02 µM
same,GI50,SF-268; read-out: GI50,1.61 µM
same,CC50,SF-268; [23],6.81 µM
same,TGI,SF-268; read-out: TGI,3.31 µM
same,GI50,SF-268; read-out: pGI50 (converted),1.62 µM
same,CC50,SF-268; [24],6.76 µM
same,TGI,SF-268; read-out: pTGI (converted),3.31 µM
same,GI50,COLO 205 [17]; read-out: GI50,1.63 µM
same,CC50,COLO 205 [17]; [23],6.42 µM
same,TGI,COLO 205 [17]; read-out: TGI,3.24 µM
same,GI50,COLO 205 [17]; read-out: pGI50 (converted),1.62 µM
same,CC50,COLO 205 [17]; [24],6.46 µM
same,TGI,COLO 205 [17]; read-out: pTGI (converted),3.24 µM
same,GI50,NCI-H23 [18]; read-out: GI50,2.14 µM
same,CC50,NCI-H23 [18]; [23],33.7 µM
same,TGI,NCI-H23 [18]; read-out: TGI,5.07 µM
same,GI50,NCI-H23 [18]; read-out: pGI50 (converted),2.14 µM
same,CC50,NCI-H23 [18]; [24],33.9 µM
same,TGI,NCI-H23 [18]; read-out: pTGI (converted),5.13 µM
same,GI50,A549; read-out: GI50,1.79 µM
same,TGI,A549; read-out: TGI,3.4 µM
same,GI50,A549; read-out: pGI50 (converted),1.78 µM
same,TGI,A549; read-out: pTGI (converted),3.39 µM
same,Activity,RXF 393,93%
same,Activity,OVCAR-5,102%
same,Activity,OVCAR-4 [19],101%
same,Activity,OVCAR-3 [20],95%
same,Activity,Hs-578T [21],95%
O=C(CCCn1c2c(sc3ccccc32)c(=O)n2nnc(-c3ccccc3)c12)NCCc1c[nH]cn1,Activity,SK-OV-3 [1],108%
same,Activity,OVCAR-8,42%
same,Activity,U-251,78%
same,Activity,SF-295,101%
same,Activity,HCT-116 [2],16%
same,Activity,NCI-H23 [3],92%
same,Activity,[4],32%
same,Activity,IGROV-1,-63%
same,Activity,SNB-19,-84%
same,Activity,NCI-H522,-25%
same,Activity,COLO 205 [5],-100%
same,Activity,NCI-H23 [6],-38%
same,Activity,MDA-MB-468 [7],8%
same,Activity,Hs-578T [8],-50%
same,Activity,SK-OV-3 [22],-6%
same,Activity,SK-MEL-28 [9],-92%
same,Activity,SW-620,-84.52%
same,Activity,HCT-116 [10],-100%
same,Activity,MDA-MB-468 [11],-100%
same,Activity,DU-145,55%
same,Activity,ACHN,83%
same,Activity,SK-OV-3 [12],84%
same,Activity,OVCAR-4 [13],91%
same,Activity,OVCAR-3 [14],92%
same,Activity,SK-MEL-28 [15],92%
same,Activity,KM12,39%
same,Activity,COLO 205 [16],41%
same,Activity,HOP-92,93%
same,Activity,BT-549,90%
same,GI50,MCF7; read-out: GI50,1.15 µM
same,LC50,MCF7; read-out: LC50,6.11 µM
same,TGI,MCF7; read-out: TGI,2.65 µM
same,GI50,MCF7; read-out: pGI50 (converted),1.15 µM
same,LC50,MCF7; read-out: pLC50 (converted),6.17 µM
same,TGI,MCF7; read-out: pTGI (converted),2.63 µM
same,GI50,SF-268; read-out: GI50,1.54 µM
same,CC50,SF-268; [23],6.7 µM
same,TGI,SF-268; read-out: TGI,3.21 µM
same,GI50,SF-268; read-out: pGI50 (converted),1.55 µM
same,CC50,SF-268; [24],6.76 µM
same,TGI,SF-268; read-out: pTGI (converted),3.24 µM
same,GI50,COLO 205 [17]; read-out: GI50,0.332 µM
same,CC50,COLO 205 [17]; [23],5.9 µM
same,TGI,COLO 205 [17]; read-out: TGI,2.23 µM
same,GI50,COLO 205 [17]; read-out: pGI50 (converted),0.331 µM
same,CC50,COLO 205 [17]; [24],5.89 µM
same,TGI,COLO 205 [17]; read-out: pTGI (converted),2.24 µM
same,GI50,NCI-H23 [18]; read-out: GI50,1.34 µM
same,TGI,NCI-H23 [18]; read-out: TGI,3.52 µM
same,GI50,NCI-H23 [18]; read-out: pGI50 (converted),1.35 µM
same,TGI,NCI-H23 [18]; read-out: pTGI (converted),3.55 µM
same,GI50,A549; read-out: GI50,1.29 µM
same,TGI,A549; read-out: TGI,3.21 µM
same,GI50,A549; read-out: pGI50 (converted),1.29 µM
same,TGI,A549; read-out: pTGI (converted),3.24 µM
same,Activity,RXF 393,125%
same,Activity,OVCAR-5,36%
same,Activity,OVCAR-4 [19],100%
same,Activity,OVCAR-3 [20],107%
same,Activity,Hs-578T [21],109%
O=C(O)CCCn1c2c(sc3ccccc32)c(=O)n2nnc(-c3ccccc3)c12,Activity,SK-OV-3 [22],90.82%
